We go through 32 compounds from article PMC5430599, “Antiplasmodial dihetarylthioethers target the coenzyme A synthesis pathway in Plasmodium falciparum erythrocytic stages” (Malaria Journal, 2017).

Read-outs that look alike come from different tables or passages of the source.

The subject of experiment [1] is asexual erythrocytic stages of transgenic NF54-luc P. falciparum. Briefly: Luciferase-based viability screening for anti-malarial activity. To be noted: for inhibition at 3 µM: read-out: % inhibition, PfNF54-Luc at 3 µM, 3 µM, 48 h; for inhibition at 3 µM / % inhibition, PfNF54-Luc at 3 µM: >50% inhibition of viability rated active; for % inhibition, PfNF54-Luc at 3 µM: 48 h. Format: cell-based, Plasmodium falciparum. The protocol:
Asexual erythrocytic stages of transgenic NF54-luc P. falciparum were used for the luciferase-based viability assay. These parasites constitutively express high levels of luciferase. The parasites were cultured as described previously. Parasite culture with parasitaemia of 0.5–1% was dispensed in triplicate into white 96-well flat-bottom plates (each well contains 250 µL) (NUNC, Roskilde, […], 90% N2, 5% CO2, and 5% O2). 0.01% DMSO was included in the untreated infected RBC cultures as negative control, since the compounds stock initially was diluted in DMSO and each treatment well also contained 0.01% DMSO. Subsequently, 100 µL RPMI1640 media was removed from each well and a 100 µL volume of the Bright-Glo® substrate solution added to each well. The resultant cleavage product of the reaction, light, was measured using a FLUOROSKAN FL luminometer (Thermo), to ascertain viable parasites. Untreated cultures were used as negative controls and to calculate the inhibition rate (0% inhibition of parasite growth). Blasticidin (Sigma-Aldrich, St. Louis, MO, USA), used for selection of transfected parasites, was included as a positive control on each plate and gave >90% inhibition of parasite growth at concentration 2 µg/mL. Compounds with >50% inhibition of viability were rated as actives. Experiments were performed in triplicate and were repeated at least twice.

Experiment [2] concerns human embryonic kidney (HEK-293) cells. Nature of the experiment: Cytotoxicity assay: human HEK-293 cell line (resazurin). The settings on record: Homo sapiens, read-out: IC50 [µM], HEK-293. Format: cell-based. The procedure: Cytotoxicity against human embryonic kidney (HEK-293) cells was assessed as previously described. […] Cells were detached using Accutase treatment, then seeded into black clear-bottom 384-wells fluorescence microplates (Greiner), at a cell density of 44,000 cells/mL in 45 µL/well, using a Benchtop liquid dispenser (Thermo Fisher Multidrop). After seeding, the cells were brought back to the incubator and allowed to settle and reattach overnight. […] Plates were incubated at the standard condition above for 72 h. At the end of the incubation the medium in each well was replaced with 1 mM resazurin, and the plates were read using a multilabel microplate reader (PerkinElmer Envision) at 530 nm excitation and 595 nm emission wavelengths after a further 6 h incubation. Inhibition data was generated using Office Excel 2013 (Microsoft). IC50 values were calculated by fitting a four-parameter nonlinear regression model using Prism v.6.0 (Graphpad Software Inc., La Jolla, CA, USA).
(Resazurin is reduced to fluorescent resorufin, in cell work by metabolically active cells.)

Experiment [3] relates to Plasmodium falciparum parasites (3D7 strain). Briefly: Coenzyme A rescue assay (imaging-based growth inhibition, with or without 0.8 mM CoA). Format: cell-based. To be noted: for IC50: Plasmodium falciparum, 3D7, 72 h; for rescue by coenzyme A supplementation (in words): 0.8 mM CoA; for IC50-ratio (CoA/solvent): IC50 with 0.8 mM CoA / IC50 solvent, threshold 5× significant; for IC50 shift with CoA supplementation: IC50 CoA / IC50 solvent. The procedure: Plasmodium falciparum parasites (3D7 strain) were grown in RPMI 1640 supplemented with 25 mM HEPES, 5 mg/mL Albumax II, and 0.37 mM hypoxanthine. Parasites were subjected to two rounds of sorbitol synchronization before undergoing compound treatment. Ring stage parasites were exposed to the experimental compounds alone, or in combination with 0.8 mM coenzyme A (CoA) in 384-wells imaging microplates (CellCarrier, PerkinElmer), as previously described. […] Puromycin 5 µM and untreated solvent were used as in-plate positive and negative controls, respectively. Samples were dissolved in DMSO to a final assay DMSO concentration of 0.4%. […] All sample and control wells contained the same final amounts of solvents. Plates were incubated for 72 h at 90% N2, 5% CO2, 5% O2, then parasites were stained with 2-(4-amidinophenyl)-1H-indole-6-carboxamidine (DAPI), and imaged using an Opera QEHS micro-plate confocal imaging system (PerkinElmer) with 405 nm excitation and 450/50 emission filter, using a 20× water immersion objective. Images were analysed as previously described, to obtain normalized % inhibition data, which were then used to calculate IC50 values, through a four parameter logistic curve fitting in GraphPad Prism v.6. The experiment was carried out in two independent biological replicates, each consisting of two technical replicates. Dose–response curves are illustrated in the Additional file 4.

Experiment [4] concerns Plasmodium berghei. The arrangement: method as in PMID 24900512. To be noted: 50 mg/kg subcutaneously over 4 days; cited from earlier work.
The test system of experiment [5] is Plasmodium falciparum. The arrangement: method as in PMID 27855724. The settings on record: addition of pantethine; cited from earlier work.
Setting [6] is: Plasmodium falciparum, NF54, 48 h.
Where [7] appears, read: 0.8 mM CoA (rescue), 72 h, read-out: IC50 [µM], Pf3D7 + 0.8 mM CoA.
[8] abbreviates: no CoA (solvent, non-rescue), 72 h, read-out: IC50 [µM], Pf3D7 + solvent.

As a reminder, the inhibition is the change of the read-out against control, counted positive when it falls. Regarding `OCc1nnc(Sc2ncnc3sccc23)o1` [Compound 3q], the inhibition at 3 µM in experiment [1] (setting [6]) was -12.3 ± 2.2%.
`CC1CCc2sc(-c3nnc(Sc4ncnc5sccc45)o3)cc2C1` (stereo not shown) [Compound 3h]: the inhibition at 3 µM in experiment [1] (setting [6]) is -103 ± 4.4%.
As to `c1cncc(-c2nnc(Sc3ncnc4sccc34)o2)c1` [Compound 3i], the inhibition at 3 µM in experiment [1] (setting [6]) was -5.5 ± 3.8%.
For orientation: IC50 means the point on the concentration scale where inhibition reaches its midpoint. Take `c1coc(-c2nc(Sc3ncnc4sccc34)n[nH]2)c1` [Compound 8a]: the IC50 in experiment [2] (HEK293, cytotoxicity, 72 h) was over 40 µM; in experiment [3] (setting [7]), 16.1 ± 2.2 µM; in experiment [3] (setting [8]) it was 10.5 ± 1.1 µM. The “% inhibition, PfNF54-Luc at 3 µM” value in experiment [1] is 33.2 ± 6.8%. In addition, in experiment [1] (setting [6]), the inhibition at 3 µM stood at 33%.
For `Brc1ccccc1-c1nnc(Sc2ncnc3sccc23)o1` [Compound 3g], the inhibition at 3 µM in experiment [1] (setting [6]) was -13.1 ± 9.1%.
As to `CC(C)(C)OC(=O)N1CCC(c2nnc(Sc3ncnc4sccc34)o2)CC1` [Compound 3n], in experiment [1] (setting [6]), the inhibition at 3 µM is -0.82 ± 3.11%.
In the case of `CC(C)(CO)C(O)C(=O)NCCCO` (stereo not shown) [Pantoth, panthenol, reference compound], the “rescue by coenzyme A supplementation (in words)” value (“rescue … (in words)” for short) in experiment [3] is “rescued”. Further, the IC50 in experiment [3] (setting [8]) was 752 ± 82 µM.
`COc1ccc(C[C@H](N)C(=O)N[C@H]2[C@@H](O)[C@H](n3cnc4c(N(C)C)ncnc43)O[C@@H]2CO)cc1` [Puromyc, puromycin, reference compound]: the IC50 in experiment [2] (HEK293, cytotoxicity, 72 h) turned out to be 0.36 µM. In addition, in experiment [3], the “rescue … (in words)” value is “not rescued” and the “IC50-ratio (CoA/solvent)” value turned out to be 2.78. Moreover, in experiment [3] (setting [7]), the IC50 was 0.0939 ± 0.0016 µM.
On to `NCc1nnc(Sc2ncnc3sccc23)o1` [Compound 3s], for which the inhibition at 3 µM in experiment [1] (setting [6]) was -2.8 ± 16.6%.
As for `c1ccn2c(Sc3ncnc4sccc34)nnc2c1` [compound 33], in experiment [4], the drop in parasitaemia was 34% and the “life-span of infected animals” value was “failed to prolong the life-span”.
On to `Fc1ccc(-c2nnc(Sc3ncnc4sccc34)o2)cc1` [Compound 3m], for which, in experiment [1] (setting [6]), the inhibition at 3 µM is -8.3 ± 4.1%.
In the case of `c1coc(-c2nnc(Sc3ncnc4[nH]ccc34)o2)c1` [Compound 6a], the inhibition at 3 µM in experiment [1] (setting [6]) is -24.8 ± 13.6%.
Regarding `N#Cc1nccnc1Sc1nnc(-c2ccco2)o1` [Compound 6c], the inhibition at 3 µM in experiment [1] (setting [6]) came to 0.98 ± 1.52%.
Consider `CCN(CC)CCCC(C)Nc1ccnc2cc(Cl)ccc12` (stereo not shown) [Chloroqu, Chloroquine, reference compound], for which the IC50 in experiment [2] (HEK293, 72 h) is over 40 µM; in experiment [3] (read-out: IC50 [µM], Pf3D7 + 0.8 mM CoA) it was 0.0271 ± 0.0094 µM; in experiment [3] (read-out: IC50 [µM], Pf3D7 + solvent), 0.0195 ± 0.0034 µM. For the same compound, the “rescue … (in words)” value in experiment [3] is “not rescued”. For the same compound, the “IC50-ratio (CoA/solvent)” value in experiment [3] is on record as 1.39.
`CN(CC[C@H](N)CC(=O)N[C@H]1C=C[C@H](n2ccc(N)nc2=O)O[C@@H]1C(=O)O)C(=N)N` [BS, Blasticidin, reference compound]: the “inhibition of parasite growth (positive control)” value in experiment [1] (2 µg/mL) is recorded as over 90%. For the same compound, the “% inhibition, PfNF54-Luc at 3 µM” value in experiment [1] is 99.3 ± 0.7%.
Turning to `C[C@@H]1CC[C@H]2[C@@H](C)C(=O)O[C@@H]3O[C@@]4(C)CC[C@@H]1[C@]32OO4` [Artemis, artemisinin, reference compound], in experiment [3], the “rescue … (in words)” value was “not rescued”. For the same compound, the IC50 in experiment [3] (setting [7]) came to 0.0049 ± 0.0011 µM; in experiment [3] (setting [8]), 0.00337 ± 0.00065 µM.
With `CC(C)(C)c1nnc(Sc2ncnc3sccc23)o1` [Compound 3p], in experiment [1] (setting [6]), the inhibition at 3 µM is -14.6 ± 12.9%.
In the case of `Cc1ccc(-c2nnc(Sc3ncnc4sccc34)o2)cc1` [Compound 3j], the inhibition at 3 µM in experiment [1] (setting [6]) is -11 ± 6.7%.
As to `Cn1cnnc1Sc1ncnc2sccc12` [Compound 8b], the IC50 is over 40 µM in experiment [2] (HEK293, cytotoxicity, 72 h); about 40 µM in experiment [3] (setting [7]); 6.4 ± 4.3 µM in experiment [3] (setting [8]). In addition, the “% inhibition, PfNF54-Luc at 3 µM” value in experiment [1] is “inactive”. The inhibition at 3 µM in experiment [1] (setting [6]) came to 4.7 ± 2.6%. The “rescue … (in words)” value in experiment [3] is “significantly rescued”. The “IC50 shift with CoA supplementation” value in experiment [3] is given as “sevenfold”. Further, in experiment [3], the “IC50-ratio (CoA/solvent)” value is 7.39.
Take `c1nc(Sc2nnc(C3CCNCC3)o2)c2ccsc2n1` [Compound 3r]: in experiment [1] (setting [6]), the inhibition at 3 µM was determined as 7.7 ± 1.8%.
As for `CCc1ccc(-c2nnc(Sc3ncnc4sccc34)o2)cc1` [Compound 3k], the inhibition at 3 µM in experiment [1] (setting [6]) was -7 ± 1.8%.
`c1coc(-c2nnc(Sc3ncnc4[nH]cnc34)o2)c1` [Compound 6b]: the inhibition at 3 µM in experiment [1] (setting [6]) was 1.79 ± 2.53%.
Consider `CC(C)(C)OC(=O)NCc1nnc(Sc2ncnc3sccc23)o1` [Compound 3o], for which the inhibition at 3 µM in experiment [1] (setting [6]) stood at 2.28 ± 3.31%.
For `Cc1csc(Sc2ncnc3sccc23)n1` [Amb180780, reference compound], in experiment [2] (HEK293, cytotoxicity, 72 h), the IC50 was over 40 µM. In addition, the “rescue of activity by pantethine, dephospho CoA and CoA” value in experiment [5] is on record as “more than 75%”. Moreover, in experiment [3], the “rescue … (in words)” value is “rescued”, the “IC50 shift with CoA supplementation” value is recorded as over 13 fold and the “IC50-ratio (CoA/solvent)” value amounted to 40.8. Also, in experiment [3] (setting [7]), the IC50 is 1.51 ± 0.19 µM. For the same compound, in experiment [3] (setting [8]), the IC50 amounted to 0.037 ± 0.0017 µM.
As to `COc1ccc(-c2nnc(Sc3ncnc4sccc34)o2)cc1` [Compound 3c], in experiment [1] (Plasmodium falciparum, NF54, 48 h, read-out: % inhibition, PfNF54-Luc at 30 µM, 30 µM, 48 h), the inhibition at 30 µM is under 50%.
For `CCN(CC)S(=O)(=O)c1ccc(-c2nnc(Sc3ncnc4sccc34)o2)cc1` [Compound 3d], the inhibition at 3 µM in experiment [1] (setting [6]) is -0.6 ± 5.4%.
Turning to `COc1ccc2[nH]c(Sc3ncnc4sccc34)nc2c1` [Compound 8j], in experiment [1], the “% inhibition, PfNF54-Luc at 3 µM” value is “inactive”. In experiment [1] (setting [6]), the inhibition at 3 µM was -36.3 ± 10.6%.
On to `O=S(=O)(c1ccc(-c2nnc(Sc3ncnc4sccc34)o2)cc1)N1CCOCC1` [Compound 3l], for which the inhibition at 3 µM in experiment [1] (setting [6]) was 24.3 ± 3.2%.
With `Clc1ccc2[nH]c(Sc3ncnc4sccc34)nc2c1` [Compound 8i], the “% inhibition, PfNF54-Luc at 3 µM” value in experiment [1] was “inactive”. Moreover, in experiment [1] (setting [6]), the inhibition at 3 µM is -18.4 ± 10.6%.
With `O=S(=O)(c1ccc(-c2nnc(Sc3ncnc4sccc34)o2)cc1)N1CCCCC1` [Compound 3e], the inhibition at 3 µM in experiment [1] (setting [6]) is -7.3 ± 6.9%.
As to `Clc1ccccc1-c1nnc(Sc2ncnc3sccc23)o1` [Compound 3f], the inhibition at 3 µM in experiment [1] (setting [6]) was 1.5 ± 4.3%.
With `Cc1ccc2nc(Sc3ncnc4sccc34)[nH]c2c1` [Compound 8h], in experiment [1], the “% inhibition, PfNF54-Luc at 3 µM” value is “inactive”. In experiment [1] (setting [6]), the inhibition at 3 µM is -1.9 ± 5.3%.
